# According to ChEMBL document CHEMBL3714764, “Diaminopyrimidine p2x3 and p2x2/3 receptor modulators for treatment of acute, sub-acute or chronic cough” (2015):
# Calls of active or inactive are those of the source. The calls are words filed in the database; no cut-off is given here.
# Target: T1, P2X purinoceptor 3 (Rattus norvegicus) (UniProt P49654)
# T1 sequence (whole entry): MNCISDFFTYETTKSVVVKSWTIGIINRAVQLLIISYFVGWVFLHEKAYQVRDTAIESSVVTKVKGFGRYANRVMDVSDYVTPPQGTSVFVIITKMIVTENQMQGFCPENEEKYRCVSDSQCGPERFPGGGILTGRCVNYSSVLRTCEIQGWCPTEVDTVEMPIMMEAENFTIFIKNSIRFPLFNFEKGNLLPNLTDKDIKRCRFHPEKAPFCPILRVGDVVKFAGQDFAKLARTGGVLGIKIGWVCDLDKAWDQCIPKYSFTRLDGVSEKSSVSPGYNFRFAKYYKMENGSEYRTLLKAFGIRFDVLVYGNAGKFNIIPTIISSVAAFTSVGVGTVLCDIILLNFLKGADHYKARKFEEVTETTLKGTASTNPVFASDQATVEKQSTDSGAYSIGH
# Assay: (§1) Antagonist activity against rat P2X3 receptor expressed in CHO-K1 cells assessed as effect on calcium level incubated for 20 mins by Fluo-3AM dye based FLIPR assay
# Format: functional, cell-based
row,Compound,inhibition
1,COc1cc(C(C)C)c(Oc2cnc(N)nc2N)cc1S(N)(=O)=O [GEFAPIXANT],Active
2,COc1cc(C(C)C)c(Oc2cnc(N)nc2N)cc1S(C)(=O)=O,Active
3,COc1cc(C(C)C)c(Oc2cnc(N)nc2N)cc1Cl,Active
4,COc1cc(C(C)C)c(Oc2cnc(N)nc2N)cc1C(C)C,Active
5,CCNS(=O)(=O)c1cc(Oc2cnc(N)nc2N)c(C(C)C)cc1OC,Active
6,CC(C)c1cc(OC(F)F)c(Cl)cc1Oc1cnc(N)nc1N,Active
7,CC(=O)c1cc(Oc2cnc(N)nc2N)c(C(C)C)cc1O,Active
8,COc1cc(C(C)C)c(Oc2cnc(N)nc2N)cc1NC(N)=O,Active
9,COc1cc(C(C)C)c(Oc2cnc(N)nc2N)cc1C(N)=O,Active
10,COc1cc(C(C)C)c(Oc2cnc(N)nc2N)cc1F,Active
11,CC(C)c1cc(OCC(F)(F)F)c(I)cc1Oc1cnc(N)nc1N,Active
12,COc1cc(Oc2cnc(N)nc2N)c(C(C)C)cc1OC,Active
13,COc1cc(C(C)C)c(Oc2cnc(N)nc2N)cc1C,Active
14,COc1cc(C(C)C)c(Oc2cnc(N)nc2N)cc1C#N,Active
15,COc1cc(C(C)C)c(Oc2cnc(N)nc2N)cc1NC(C)=O,Active
16,CCS(=O)(=O)c1cc(Oc2cnc(N)nc2N)c(C(C)C)cc1OC,Active
17,COc1cc(C(C)C)c(Oc2cnc(N)nc2N)cc1I,Active
18,COc1cc(C(C)C)c(Oc2cnc(N)nc2N)cc1C(=O)O,Active

row,Compound,inhibition
1,C#CCOc1cc(C(C)C)c(Oc2cnc(N)nc2N)cc1I,Active
2,CC(C)c1cc(O)c(I)cc1Cc1cnc(N)nc1N,Active
3,COc1cc(C(C)C)c(Oc2cnc(N)nc2N)cc1C(F)(F)F,Active
4,COc1cc(C(C)C)c(Oc2cnc(N)nc2N)cc1OC(F)(F)F,Active
5,COc1cc(C(C)C)c(Oc2cnc(N)nc2N)cc1C(C)OC (configuration not stated),Active
6,COc1cc(C(C)C)c(Oc2cnc(N)nc2N)cc1Br,Active
7,COc1cc(C(C)C)c(Oc2cnc(N)nc2N)cc1C(=O)N(C)C,Active
8,CCOc1cc(C(C)C)c(Oc2cnc(N)nc2N)cc1I,Active
9,COc1cc(C(C)C)c(Oc2cnc(N)nc2N)cc1[N+](=O)[O-],Active
10,COc1cc(C(C)C)c(Oc2cnc(N)nc2N)cc1NC(=O)Nc1ccccc1,Active
11,COc1cc(C(C)C)c(Oc2cnc(N)nc2N)cc1C(C)(C)O,Active
12,CNS(=O)(=O)c1cc(Oc2cnc(N)nc2N)c(C(C)C)cc1OC,Active
13,COc1cc(C(C)C)c(Oc2cnc(N)nc2N)cc1C(C)O (configuration not stated),Active
14,COc1cc(C(C)C)c(Oc2cnc(N)nc2N)cc1N,Active
15,C=Cc1cc(Oc2cnc(N)nc2N)c(C(C)C)cc1OC,Active
16,CCNC(=O)Nc1cc(Oc2cnc(N)nc2N)c(C(C)C)cc1OC,Active
17,CNC(=O)c1cc(Oc2cnc(N)nc2N)c(C(C)C)cc1OC,Active
18,COc1cc(C(C)C)c(Oc2cnc(N)nc2N)cc1C(C)=O,Active

# Target: T2, P2X purinoceptor 3 (Rattus norvegicus, UniProt P49654)
# T2 sequence (P49654 whole entry): T1 sequence (whole entry)
# Assay: as §1
# Format: functional, cell-based
row,Compound,IC50
1,CC(C)c1cc(O)c(I)cc1Oc1cnc(N)nc1N,5.01 nM

# Species on record: Homo sapiens
# Assay: Anti-tussive activity in idiopathic/treatment-resistant chronic cough patient assessed as reduction in daytime cough per hour at 600 mg BID measured after 2 weeks during double-blind randomized placebo-controlled crossover trial
# Format: functional
row,Compound,inhibition (INH)
1,COc1cc(C(C)C)c(Oc2cnc(N)nc2N)cc1S(N)(=O)=O [GEFAPIXANT],75%

# Species on record: Homo sapiens
# Assay: Anti-tussive activity in idiopathic/treatment-resistant chronic cough patient assessed as cough severity visual analogue scales at 600 mg BID measured after 2 weeks during double-blind randomized placebo-controlled crossover trial
# Format: functional
row,Compound,Activity
1,COc1cc(C(C)C)c(Oc2cnc(N)nc2N)cc1S(N)(=O)=O [GEFAPIXANT],-26 mm

# Species on record: Homo sapiens
# Assay: Anti-tussive activity in idiopathic/treatment-resistant chronic cough patient assessed as urge to cough analogue scales at 600 mg BID measured after 2 weeks during double-blind randomized placebo-controlled crossover trial
# Format: functional
row,Compound,Activity
1,COc1cc(C(C)C)c(Oc2cnc(N)nc2N)cc1S(N)(=O)=O [GEFAPIXANT],-21 mm

# Species on record: Homo sapiens
# Assay: Anti-tussive activity in idiopathic/treatment-resistant chronic cough patient assessed as global ratings of change and cough quality of life questionnaire at 600 mg BID measured after 2 weeks during double-blind randomized placebo-controlled crossover trial
# Format: functional
row,Compound,Activity_index
1,COc1cc(C(C)C)c(Oc2cnc(N)nc2N)cc1S(N)(=O)=O [GEFAPIXANT],-9

# Species on record: Homo sapiens
# Assay: Anti-tussive activity in patient with refractory chronic cough assessed as reduction in objective daytime cough counts at 600 mg BID measured after 2 weeks during double-blind randomized placebo-controlled crossover trial
# Format: functional
row,Compound,inhibition (INH)
1,COc1cc(C(C)C)c(Oc2cnc(N)nc2N)cc1S(N)(=O)=O [GEFAPIXANT],75%
